Laboratory results as given in patent US20210214375A1 (LUNDBECK LA JOLLA RESEARCH CENTER, INC., priority 2017, published 2021).
pIC50: −log10 of the molar value. Like-named read-outs stand apart in the source and are kept apart here.

Legend:
[1] = biological target: T1, MAGL (Homo sapiens, UniProt Q99685); assay: In vitro competitive activity-based protein profiling (gel-based, FP-Rh or HT-01 probe); type: biochemical
T1 construct: Proteomes (human prefrontal cortex or cell membrane fractions); from tissue
T1 sequence (Q99685 1-303): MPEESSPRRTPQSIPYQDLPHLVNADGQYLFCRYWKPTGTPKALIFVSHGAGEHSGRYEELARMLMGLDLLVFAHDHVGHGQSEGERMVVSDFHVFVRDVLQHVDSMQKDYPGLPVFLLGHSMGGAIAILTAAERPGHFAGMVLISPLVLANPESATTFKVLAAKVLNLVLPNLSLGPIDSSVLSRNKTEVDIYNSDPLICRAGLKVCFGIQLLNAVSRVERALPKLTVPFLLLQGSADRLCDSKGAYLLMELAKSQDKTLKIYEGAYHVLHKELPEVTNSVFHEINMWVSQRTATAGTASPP
Summary of the method: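 Readout is SDS-PAGE of probe-labelled proteome after FP-Rh or HT-01 (1.0 μL, 50 μM stock) labelling for 30 min at room temperature. Beforehand, inhibitors at varying concentrations were preincubated 30 min at 37° C with human prefrontal cortex or cell membrane fractions at 1.0 mg/mL total protein.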

[2] = biological target: T2, MGLL (Mus musculus, UniProt O35678); assay: In vitro competitive activity-based protein profiling, mouse brain proteome; type: biochemical
T2 construct: Brain; from tissue; host or cells: mouse brain proteome
T2 sequence (O35678 1-303): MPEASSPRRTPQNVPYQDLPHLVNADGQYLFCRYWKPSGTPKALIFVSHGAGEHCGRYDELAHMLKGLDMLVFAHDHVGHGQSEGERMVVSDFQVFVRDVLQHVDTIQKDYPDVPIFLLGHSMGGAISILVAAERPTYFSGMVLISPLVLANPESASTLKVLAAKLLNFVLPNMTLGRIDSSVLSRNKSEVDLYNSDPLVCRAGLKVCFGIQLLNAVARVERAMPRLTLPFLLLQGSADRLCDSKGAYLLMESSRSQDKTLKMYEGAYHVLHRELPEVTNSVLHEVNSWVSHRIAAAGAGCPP
Protocol: [Worded in the source for another species; this species is reported under the same test.] (§1) Proteomes (human prefrontal cortex or cell membrane fractions) (50 μL, 1.0 mg/mL total protein concentration) were preincubated with varying concentrations of inhibitors at 37° C. After 30 min, FP—Rh or HT-01 (1.0 μL, 50 μM in DMSO) was added and the mixture was incubated for another 30 min at room temperature. Reactions were quenched with SDS loading buffer (15 μL-4×) and run on SDS-PAGE.

[3] = biological target: T3, ABHD6 (Mus musculus, UniProt Q8R2Y0); assay: In vitro competitive activity-based protein profiling, mouse brain proteome, ABHD6; type: biochemical; details: mouse
T3 construct: Brain; from tissue; host or cells: mouse brain proteome
T3 sequence (Q8R2Y0 1-336): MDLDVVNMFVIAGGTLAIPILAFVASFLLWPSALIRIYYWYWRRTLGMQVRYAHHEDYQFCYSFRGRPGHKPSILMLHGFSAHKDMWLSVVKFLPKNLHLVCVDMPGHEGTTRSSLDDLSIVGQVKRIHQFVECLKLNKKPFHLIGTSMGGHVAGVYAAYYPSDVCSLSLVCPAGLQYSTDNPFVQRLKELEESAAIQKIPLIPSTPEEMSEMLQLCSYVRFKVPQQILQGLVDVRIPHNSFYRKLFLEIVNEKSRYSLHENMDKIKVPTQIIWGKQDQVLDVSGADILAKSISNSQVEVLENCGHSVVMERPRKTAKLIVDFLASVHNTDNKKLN
Protocol: [Worded in the source for another target; this target is reported under the same test.] as §1

[4] = biological target: T4, MAGL (Mus musculus, UniProt O35678); assay: Mouse brain proteomes from inhibitor treated mice (oral gavage, brain proteomes analyzed 4 h after administration); type: in vivo, mouse (C57Bl/6J); details: brain proteome 4 h after administration, read-out: % Inh 5 mg/kg MGLL (Mouse)
T4 construct: from tissue; host or cells: brain of wild-type C57Bl/6J mice
T4 sequence (O35678 1-303): T2 sequence (O35678 1-303)
Summary of the method: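 Wild-type C57Bl/6J mice dosed orally in polyethylene glycol vehicle; brains removed 4 h post-dose and brain proteomes prepared and analysed for MAGL and serine hydrolase activity by previously established methods.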

SMILES | pIC50 ([1]; PC3 proteome, read-out: IC50 MGLL PC3 (Human)) | pIC50 ([1]; PFC (prefrontal cortex) proteome, read-out: IC50 MGLL PFC (Human)) | pIC50 [2] | pIC50 [3] | inhibition at 5 mg/kg [4]
CC(=O)N1CC2(CCN(c3cc(Cl)ccc3CN3CCN(C(=O)OC(C(F)(F)F)C(F)(F)F)CC3)CC2)C1 [Example 213, 1,1,1,3,3,3-Hexafluoropropan-2-yl 4-(2-(2-acetyl-2,7-diazaspiro[3.5]nonan-7-yl)-4-chlorobenzyl) piperazine-1-carboxylate] | – | – | > 7.00 | < 6.00 | ≥ 75%
CN(Cc1ccc(C(F)(F)F)cc1N1CCCC1)C1(C)CCN(C(=O)OC(C(F)(F)F)C(F)(F)F)CC1 [Example 72, 1,1,1,3,3,3-Hexafluoropropan-2-yl 4-methyl-4-(methyl(2-(pyrrolidin-1-yl)-4-(trifluoromethyl)benzyl)amino) piperidine-1-carboxylate] | – | – | > 7.00 | < 6.00 | ≥ 75%
O=C(OC(C(F)(F)F)C(F)(F)F)N1CCC2(CC1)CN(Cc1ccc(C(F)(F)F)cc1N1CCCC1)C2 [Example 151, 1,1,1,3,3,3-Hexafluoropropan-2-yl 2-(2-(pyrrolidin-1-yl)-4-(trifluoromethyl)benzyl)-2,7-diazaspiro[3.5]nonane-7-carboxylate] | – | – | > 7.00 | 6.00 to 7.00 | ≥ 75%
O=C(OC(C(F)(F)F)C(F)(F)F)N1CCC2(CCN(Cc3ccc(C(F)(F)F)cc3N3CCCCC3)CC2)C1 [Example 187, 1,1,1,3,3,3-Hexafluoropropan-2-yl 8-(2-(piperidin-1-yl)-4-(trifluoromethyl)benzyl)-2,8-diazaspiro[4.5]decane-2-carboxylate] | – | – | > 7.00 | < 6.00 | ≥ 75%
CCN1CCN(c2cccc(C(F)(F)F)c2CN2CC3(CCN(C(=O)OC(C(F)(F)F)C(F)(F)F)CC3)C2)CC1 [Example 54, 1,1,1,3,3,3-Hexafluoropropan-2-yl 2-(2-(4-ethylpiperazin-1-yl)-6-(trifluoromethyl)benzyl)-2,7-diazaspiro[3.5]nonane-7-carboxylate] | – | – | > 7.00 | < 6.00 | ≤ 25%
CN1CCC2(CCN(c3cc(Cl)ccc3CN3CCN(C(=O)OC(C(F)(F)F)C(F)(F)F)CC3)CC2)C1 [Example 177, 1,1,1,3,3,3-Hexafluoropropan-2-yl 4-(4-chloro-2-(2-methyl-2,8-diazaspiro[4.5]decan-8-yl)benzyl)piperazine-1-carboxylate] | – | – | > 7.00 | < 6.00 | 25 to 75%
O=C(OC(C(F)(F)F)C(F)(F)F)N1CCC2(CC1)CN(Cc1ccc(Cl)cc1N1CCOCC1)C2 [Example 39, 1,1,1,3,3,3-Hexafluoropropan-2-yl 2-(4-chloro-2-morpholinobenzyl)-2,7-diazaspiro[3.5]nonane-7-carboxylate] | – | – | > 7.00 | 6.00 to 7.00 | ≥ 75%
O=C(OC(C(F)(F)F)C(F)(F)F)N1CCC2(CCN(Cc3cccc(Cl)c3N3CCCC3)CC2)C1 [Example 171, 1,1,1,3,3,3-Hexafluoropropan-2-yl 8-(3-chloro-2-(pyrrolidin-1-yl)benzyl)-2,8-diazaspiro[4.5]decane-2-carboxylate] | – | – | > 7.00 | < 6.00 | ≥ 75%
O=C(OC(C(F)(F)F)C(F)(F)F)N1CCC2(CC1)CN(Cc1c(N3CCC4(CCOCC4)C3)cccc1C(F)(F)F)C2 [Example 52, 1,1,1,3,3,3-Hexafluoropropan-2-yl 2-(2-(8-oxa-2-azaspiro[4.5]decan-2-yl)-6-(trifluoromethyl)benzyl)-2,7-diazaspiro[3.5]nonane-7-carboxylate] | – | – | > 7.00 | 6.00 to 7.00 | ≥ 75%
CS(=O)(=O)N1CCN(c2cccc(Cl)c2CN2CC3(CCN(C(=O)OC(C(F)(F)F)C(F)(F)F)CC3)C2)CC1 [Example 44, 1,1,1,3,3,3-Hexafluoropropan-2-yl 2-(2-chloro-6-(4-(methylsulfonyl)piperazin-1-yl)benzyl)-2,7-diazaspiro[3.5]nonane-7-carboxylate] | – | – | > 7.00 | > 7.00 | ≥ 75%

Other lines, results leading:

pIC50 ([1]; PC3 proteome, read-out: IC50 MGLL PC3 (Human)) | pIC50 ([1]; PFC (prefrontal cortex) proteome, read-out: IC50 MGLL PFC (Human)) | pIC50 [2] | pIC50 [3] | inhibition at 5 mg/kg [4] | SMILES
> 7.00 | > 7.00 | > 7.00 | < 6.00 | ≥ 75% | O=C(O)C1CN(c2cc(C(F)(F)F)ccc2CN2CC3(CCN(C(=O)OC(C(F)(F)F)C(F)(F)F)CC3)C2)CCO1 (centres unmarked) [Example 20, 4-(2-((7-(((1,1,1,3,3,3-Hexafluoropropan-2-yl)oxy)carbonyl)-2,7-diazaspiro[3.5]nonan-2-yl)methyl)-5-(trifluoromethyl)phenyl)morpholine-2-carboxylic acid]
– | – | > 7.00 | < 6.00 | 25 to 75% | O=C(OC(C(F)(F)F)C(F)(F)F)N1CCC2(CCN(Cc3ccc(C(F)(F)F)cc3N3CCC(F)CC3)CC2)C1 [Example 192, 1,1,1,3,3,3-Hexafluoropropan-2-yl 8-(2-(4-fluoropiperidin-1-yl)-4-(trifluoromethyl)benzyl)-2,8-diazaspiro[4.5]decane-2-carboxylate]
– | – | > 7.00 | < 6.00 | ≥ 75% | CS(=O)(=O)N1CCC2(CCN(c3ccccc3CN3CCN(C(=O)OC(C(F)(F)F)C(F)(F)F)CC3)C2)C1 (centres unmarked) [Example 165, 1,1,1,3,3,3-Hexafluoropropan-2-yl 4-(2-(7-(methylsulfonyl)-2,7-diazaspiro[4.4]nonan-2-yl)benzyl)piperazine-1-carboxylate]
– | – | > 7.00 | < 6.00 | ≤ 25% | CCN1CC2(CCN(c3cc(C(F)(F)F)ccc3CN3CCN(C(=O)OC(C(F)(F)F)C(F)(F)F)CC3)C2)C1 [Example 184, 1,1,1,3,3,3-Hexafluoropropan-2-yl 4-(2-(2-ethyl-2,6-diazaspiro[3.4]octan-6-yl)-4-(trifluoromethyl)benzyl)piperazine-1-carboxylate]
– | – | > 7.00 | 6.00 to 7.00 | ≤ 25% | CCN1CCN(c2cccc(Cl)c2CN2CC3(CCN(C(=O)OC(C(F)(F)F)C(F)(F)F)CC3)C2)CC1 [Example 50, 1,1,1,3,3,3-Hexafluoropropan-2-yl 2-(2-chloro-6-(4-ethylpiperazin-1-yl)benzyl)-2,7-diazaspiro[3.5]nonane-7-carboxylate]
– | – | > 7.00 | 6.00 to 7.00 | 25 to 75% | CS(=O)(=O)N1CCC2(CCN(c3cccc(Cl)c3CN3CC4(CCN(C(=O)OC(C(F)(F)F)C(F)(F)F)CC4)C3)CC2)C1 [Example 61, 1,1,1,3,3,3-Hexafluoropropan-2-yl 2-(2-chloro-6-(2-(methylsulfonyl)-2,8-diazaspiro[4.5]decan-8-yl)benzyl)-2,7-diazaspiro[3.5]nonane-7-carboxylate]
– | – | > 7.00 | < 6.00 | ≤ 25% | CS(=O)(=O)N1CCC2(CCN(c3cc(CN4CCCC45CN(C(=O)OC(C(F)(F)F)C(F)(F)F)C5)cc(C(F)(F)F)c3)CC2)C1 [Example 233, 1,1,1,3,3,3-Hexafluoropropan-2-yl 5-(3-(2-(methylsulfonyl)-2,8-diazaspiro[4.5]decan-8-yl)-5-(trifluoromethyl)benzyl)-2,5-diazaspiro[3.4]octane-2-carboxylate]
– | – | > 7.00 | < 6.00 | ≤ 25% | CC(=O)N1CCC2(CC1)CCN(c1cc(C(F)(F)F)ccc1CN1CCN(C(=O)OC(C(F)(F)F)C(F)(F)F)CC1)C2 [Example 197, 1,1,1,3,3,3-Hexafluoropropan-2-yl 4-(2-(8-acetyl-2,8-diazaspiro[4.5]decan-2-yl)-4-(trifluoromethyl)benzyl)piperazine-1-carboxylate]
